From US20260008746A1, “CATIONIC LIPID COMPOUND WITH HIGH EFFICIENCY, LOW TOXICITY AND STABLE EXPRESSION, AND COMPOSITION COMPRISNG SAME” (HANGZHOU TIANLONG PHARMACEUTICAL CO., LTD, priority 2023, published 2026)
Blank lines part the entries; values can stand above or below the molecule they belong to.

How the values were obtained:
BALB/C mice = assay: In vivo imaging of Fluc-mRNA expression in mice delivered by LNP formulations; details: for average radiation intensity, 6 h / average radiation intensity, 24 h / average radiation intensity, 48 h / average radiation intensity, 7 d: LNP containing 10 pg Fluc-mRNA, intramuscular, female BALB/C mice
Procedure: The LNP formulation containing […] Fluc-mRNA was injected intramuscularly into female BALB/C mice aged 4-6 weeks old and weighed 17-19 g, and the mice were intraperitoneally injected with fluorescent imaging substrate at specific time points after administration (6h, 24 h, 48h and 7d), where the mice were allowed to move freely for 5 minutes, and then the average radiation intensity (corresponding to fluorescence expression intensity) of the protein expression of the mRNA carried by the LNP in the mice was detected by the IVIS Spectrum small animal in vivo imaging device. The test results are shown in Tables 11 to 14 and FIGS. 12 to 14.

293T cells [1] = assay: Cell survival rate determination (CCK-8); format: cell-based; details: for Cell survival rate (%): LNP formulation containing 1.5 μg Fluc-mRNA, 24 hours, CCK-8, absorbance at 450 nm; for cell survival rate lower than that of YK-101: cell survival rate of YK-101 minus that of named substance; for cell survival rate lower than that of YK-107: cell survival rate of YK-107 minus that of named substance; for cell survival rate lower than that of YK-108: cell survival rate of YK-108 minus that of named substance
How it was run: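 293T cells were seeded overnight at 10,000 cells/well in 96-well plates, then exposed for 24 h to LNP containing 1.5 μg Fluc-mRNA (cationic:neutral:structural:polymer-conjugated lipid, 49:10:39.5:1.5 molar) or to Lipofectamine 3000. Viability was read by CCK-8, 1 h incubation, absorbance 450 nm.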

293T cells [2] = assay: Fluorescent detection of Fluc-mRNA (cell transfection efficiency of LNP formulations); format: cell-based; details: for Relative light unit (RLU): LNP formulation containing 0.3 μg Fluc-mRNA, 96-well plate, 24 hours; for Multiples (YK-107): RLU of YK-107 / RLU of named substance; for fluorescence absorption value, times that of HHMA: RLU of named substance / RLU of HHMA; for fluorescence absorption value, times that of Lipofectamine 3000: RLU of named substance / RLU of Lipofectamine 3000; for Ratio relative to SM-102: RLU of named substance / RLU of SM-102; for Fluc-mRNA expression signal intensity, times that of compound 21: RLU of named substance / RLU of compound 21; for fluorescence absorption value, times that of compound 23: RLU of named substance / RLU of compound 23; for difference from SM-102 in Fluc-mRNA fluorescence (GraphPad Prism analysis): statistical comparison with SM-102; for Multiples (YK-101): RLU of YK-101 / RLU of named substance; for Multiples (YK-108): RLU of YK-108 / RLU of named substance
How it was run: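 293T cells seeded at 10,000 per well, cultured overnight, then given LNP carrying 0.3 μg Fluc-mRNA (cationic:neutral:structured:PEG-lipid 49:10:39.5:1.5 molar). Incubated 24 h. Luciferase signal read with kit reagent on an IVIS imaging system.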

[3] = Determination of particle size and polydispersity index (PDI) of lipid nanoparticles by dynamic light scattering; format: physicochemical; details: LNP formulation of named cationic lipid/DSPC/cholesterol/DMG-PEG2000 49:10:39.5:1.5; for Particle size (nm): 90° scattering angle, 25° C
Procedure: The cationic lipids listed in Table 1 were dissolved in ethanol with DSPC (AVT (Shanghai) Pharmaceutical Technology Co., Ltd.), cholesterol (AVT (Shanghai) Pharmaceutical Technology Co., Ltd.) and DMG-PEG2000 according to a molar ratio of 49:10:39.5:1.5, respectively, to prepare lipid solution in ethanol. The lipid solution in ethanol was quickly added to citrate buffer (pH=4 to 5) by ethanol injection method, and vortexed for 30 s for later use. eGFP-mRNA (from Shanghai Biohub International Trade Co., Ltd) or Fluc-mRNA (from Shanghai Biohub International Trade Co., Ltd) was diluted in citrate buffer (pH=4 to 5) to give an aqueous mRNA solution. A certain volume of liposome solution and mRNA aqueous solution were used to prepare liposomes at a weight ratio of total lipids to mRNA of 15:1. The mixtures were sonicated at 25° C. for 15 min (with an ultrasonic frequency of 40 kHz and an ultrasonic power of 800 W). The resulting liposomes were diluted to 10 times volume with PBS, and then ultrafiltered with a 300 KDa ultrafiltration tube to remove ethanol. Then the volume was fixed to a certain volume with PBS to give an LNP formulation encapsulating eGFP-mRNA or Fluc-mRNA using cationic lipid/DSPC/cholesterol/DMG-PEG2000 (49:10:39.5:1.5 in molar percentage).
The particle size and polydispersity index (PDI) were determined by dynamic light scattering using Malvern laser particle size analyzer.
10 μL of the liposome solution was weighed, diluted to 1 mL with RNase-free deionized water, and added to the sample pool. Each sample was measured in triplicate. The measurement conditions were: 90° scattering angle, and 25° C.

Structure (SMILES): CCCCCCCCCCOC(=O)CCCN(CCO)CCCCCC(=O)OCC(CCCCCCCC)CCCCCCCC [YK-009, reference compound]
average radiation intensity, 6 h (BALB/C mice; 6 h): 1055200
average radiation intensity, 24 h (BALB/C mice; 24 h): 770050
average radiation intensity, 48 h (BALB/C mice; 48 h): 132100
average radiation intensity, 7 d (BALB/C mice; 7 d): 10665
Cell survival rate (%) (293T cells [1]): 73.57%
cell survival rate lower than that of YK-101 (293T cells [1]): 16.55%
cell survival rate lower than that of YK-107 (293T cells [1]): 16.88%
cell survival rate lower than that of YK-108 (293T cells [1]): 16.29%
Relative light unit (RLU) (293T cells [2]): 5075954 RLU
Multiples (YK-101) (293T cells [2]): 4.01
Multiples (YK-107) (293T cells [2]): 4.41
Multiples (YK-108) (293T cells [2]): 4.86
Ratio relative to SM-102 (293T cells [2]): 3.31
PDI(%) [3]: 12.1%
Particle size (nm) [3]: 205 nm

Structure (SMILES): CCCCCCCCCCOC(=O)CCCCCN(CCO)CCCCCC(=O)OCCC(CCCCCC)CCCCCC [YK-103, 3-hexylnonyl-6-((6-(decyloxy)-6-oxohexyl)(2-hydroxyethyl)amino)hexanoate]
Cell survival rate (%) (293T cells [1]): 45.25%
cell survival rate lower than that of YK-101 (293T cells [1]): 44.87%
cell survival rate lower than that of YK-107 (293T cells [1]): 45.20%
cell survival rate lower than that of YK-108 (293T cells [1]): 44.61%
cell transfection activity, times that of YK-109 (293T cells [2]): 3.2 times
Relative light unit (RLU) (293T cells [2]): 2312883 RLU
Multiples (YK-101) (293T cells [2]): 8.79
Multiples (YK-107) (293T cells [2]): 9.67
Multiples (YK-108) (293T cells [2]): 10.66
Ratio relative to SM-102 (293T cells [2]): 1.51
difference from SM-102 in Fluc-mRNA fluorescence (GraphPad Prism analysis) (293T cells [2]): no significant difference
PDI(%) [3]: 21.5%
Particle size (nm) [3]: 179 nm

Structure (SMILES): CCCCCCCCCCOC(=O)CCCN(CCO)CCCCCCOC(=O)CC(CCCCCC)CCCCCC [YK-105]
Cell survival rate (%) (293T cells [1]): 78.58%
cell survival rate lower than that of YK-101 (293T cells [1]): 11.54%
cell survival rate lower than that of YK-107 (293T cells [1]): 11.87%
cell survival rate lower than that of YK-108 (293T cells [1]): 11.28%
Relative light unit (RLU) (293T cells [2]): 1593805 RLU
Multiples (YK-101) (293T cells [2]): 12.76
Multiples (YK-107) (293T cells [2]): 14.03
Multiples (YK-108) (293T cells [2]): 15.47
Ratio relative to SM-102 (293T cells [2]): 1.04
difference from SM-102 in Fluc-mRNA fluorescence (GraphPad Prism analysis) (293T cells [2]): no significant difference
PDI(%) [3]: 18.6%
Particle size (nm) [3]: 109 nm

Further lines, with some results ahead:

PDI(%) [3]: 15.4%
Particle size (nm) [3]: 246 nm
Structure (SMILES): CCCCCCCCCCOC(=O)CCCN(CCCCCC(=O)OCCC(CCCCCC)CCCCCC)CCOCCO [YK-123, 3-hexylnonyl 6-(4-(decyloxy)-4-oxobutyl)(2-(2-hydroxyethoxy-ethyl)amino)hexanoate]
average radiation intensity of YK-101, times that of named substance (BALB/C mice; 6 h): 4.7 times
average radiation intensity of YK-107, times that of named substance (BALB/C mice; 6 h): 5.0 times
average radiation intensity of YK-108, times that of named substance (BALB/C mice; 6 h): 6.4 times
average radiation intensity of YK-101, times that of named substance (BALB/C mice; 24 h): 18.0 times
average radiation intensity of YK-107, times that of named substance (BALB/C mice; 24 h): 22.2 times
average radiation intensity of YK-108, times that of named substance (BALB/C mice; 24 h): 23.9 times
average radiation intensity of YK-101, times that of named substance (BALB/C mice; 48 h): 19.9 times
average radiation intensity of YK-107, times that of named substance (BALB/C mice; 48 h): 24.2 times
average radiation intensity of YK-108, times that of named substance (BALB/C mice; 48 h): 24.7 times
average radiation intensity of YK-101, times that of named substance (BALB/C mice; 7 d): 8.6 times
average radiation intensity of YK-107, times that of named substance (BALB/C mice; 7 d): 9.4 times
average radiation intensity of YK-108, times that of named substance (BALB/C mice; 7 d): 10.0 times
average radiation intensity, 6 h (BALB/C mice; 6 h): 317640
average radiation intensity, 24 h (BALB/C mice; 24 h): 58728
average radiation intensity, 48 h (BALB/C mice; 48 h): 9336
average radiation intensity, 7 d (BALB/C mice; 7 d): 1414
Cell survival rate (%) (293T cells [1]): 76.68%
cell survival rate lower than that of YK-101 (293T cells [1]): 13.44%
cell survival rate lower than that of YK-107 (293T cells [1]): 13.77%
cell survival rate lower than that of YK-108 (293T cells [1]): 13.18%
cell transfection efficiency, times that of YK-124 (293T cells [2]): 10 times
Relative light unit (RLU) (293T cells [2]): 807703 RLU
Multiples (YK-107) (293T cells [2]): 27.68
fluorescence absorption value, times that of HHMA (293T cells [2]): 0.39 times
fluorescence absorption value, times that of Lipofectamine 3000 (293T cells [2]): 0.75 times
Ratio relative to SM-102 (293T cells [2]): 0.53
Fluc-mRNA expression signal intensity, times that of compound 21 (293T cells [2]): 0.58 times
fluorescence absorption value, times that of compound 23 (293T cells [2]): 0.63 times
difference from SM-102 in Fluc-mRNA fluorescence (GraphPad Prism analysis) (293T cells [2]): no significant difference

PDI(%) [3]: 21.8%
Particle size (nm) [3]: 167 nm
Structure (SMILES): CCCCCCCCCCOC(=O)CCCN(CCCCCC(=O)OCCC(CCCCCC)CCCCCC)C[C@@H](O)CO [YK-115]
Cell survival rate (%) (293T cells [1]): 59.07%
cell survival rate lower than that of YK-101 (293T cells [1]): 31.05%
cell survival rate lower than that of YK-107 (293T cells [1]): 31.38%
cell survival rate lower than that of YK-108 (293T cells [1]): 30.79%
Relative light unit (RLU) (293T cells [2]): 1427501 RLU
Multiples (YK-101) (293T cells [2]): 14.25
Multiples (YK-107) (293T cells [2]): 15.66
Multiples (YK-108) (293T cells [2]): 17.28
fluorescence absorption value, times that of HHMA (293T cells [2]): 0.70 times
fluorescence absorption value, times that of Lipofectamine 3000 (293T cells [2]): 1.33 times
Ratio relative to SM-102 (293T cells [2]): 0.93
Fluc-mRNA expression signal intensity, times that of compound 21 (293T cells [2]): 1.03 times
fluorescence absorption value, times that of compound 23 (293T cells [2]): 1.11 times

PDI(%) [3]: 26.4%
Particle size (nm) [3]: 220 nm
Structure (SMILES): CCCCCCCCCCOC(=O)CCCN(CCCCCC(=O)OCCC(CCCCCC)CCCCCC)CCOC(=O)CCCN(C)C [YK-125]
Cell survival rate (%) (293T cells [1]): 35.39%
cell survival rate lower than that of YK-101 (293T cells [1]): 54.73%
cell survival rate lower than that of YK-107 (293T cells [1]): 55.06%
cell survival rate lower than that of YK-108 (293T cells [1]): 54.47%
Relative light unit (RLU) (293T cells [2]): 169824 RLU
Multiples (YK-107) (293T cells [2]): 131.67
fluorescence absorption value, times that of HHMA (293T cells [2]): 0.08 times
fluorescence absorption value, times that of Lipofectamine 3000 (293T cells [2]): 0.16 times
Ratio relative to SM-102 (293T cells [2]): 0.11
Fluc-mRNA expression signal intensity, times that of compound 21 (293T cells [2]): 0.12 times
fluorescence absorption value, times that of compound 23 (293T cells [2]): 0.13 times
difference from SM-102 in Fluc-mRNA fluorescence (GraphPad Prism analysis) (293T cells [2]): significant difference
